Active and inactive are the calls of the source. The rule behind the calls is not given here.
Assays:
[1] = test system: SK-N-FI; assay: Antitumor activity against human SK-N-FI cells xenografted in Ncr nude mouse assessed as inhibition of tumor growth by measuring suppression of tumor weight at 3 mg/kg, sc dosed daily for 15 days relative to control; format: functional; details: for inhibition in vivo at 3 mg/kg: 360 h, read-out: TGI
[2] = Drug uptake in human SK-N-FI cells using Cy7-labeled compound incubated for 4 hrs by confocal microscopy; format: ADME, cell-based
[3] = target: T1, Integrin alpha-V/beta-3 (Homo sapiens, UniProt P05106+P06756); assay: Binding affinity to […] integrin alphaVbeta3 in human SK-N-FI cells using Cy7-labeled compound incubated for 4 hrs by confocal microscopy; format: cell-based
[4] = test system: SK-N-FI; assay: Antitumor activity against human SK-N-FI cells xenografted in Ncr nude mouse assessed as inhibition of neuroblastoma tumor cell viability at 1 to 10 mg/kg, sc dosed daily for 15 days relative to control; format: functional
[5] = test system: SK-N-FI; assay: Antitumor activity against human SK-N-FI cells xenografted in Ncr nude mouse assessed as inhibition of tumor growth at 1 to 10 mg/kg, sc dosed daily up to 15 days relative to control; format: functional
[6] = test system: SK-N-FI; assay: Inhibition of cell proliferation of human SK-N-FI cells at 30 to 100 uM incubated for 48 hrs relative to control; format: functional
[7] = test system: SK-N-FI; assay: Antitumor activity against human SK-N-FI cells xenografted in Ncr nude mouse assessed as increase in neuroblastoma tumor apoptosis and necrosis at 1 to 10 mg/kg, sc dosed daily for 15 days relative to control; format: functional
[8] = Drug uptake in nucleus of human SK-N-FI cells using Cy7-labeled compound incubated for 4 hrs by confocal microscopy; format: ADME, subcellular
[9] = test system: SK-N-FI; assay: Inhibition of cell proliferation of human SK-N-FI cells at 30 to 100 uM incubated for 24 hrs relative to control; format: functional
[10] = target: T1, Integrin alpha-V/beta-3; assay: Binding affinity to purified integrin alphaVbeta3 receptor (unknown origin) incubated for 2 hrs; format: protein-complex assay
Target sequence in this assay (P05106 27-788 limits assumed): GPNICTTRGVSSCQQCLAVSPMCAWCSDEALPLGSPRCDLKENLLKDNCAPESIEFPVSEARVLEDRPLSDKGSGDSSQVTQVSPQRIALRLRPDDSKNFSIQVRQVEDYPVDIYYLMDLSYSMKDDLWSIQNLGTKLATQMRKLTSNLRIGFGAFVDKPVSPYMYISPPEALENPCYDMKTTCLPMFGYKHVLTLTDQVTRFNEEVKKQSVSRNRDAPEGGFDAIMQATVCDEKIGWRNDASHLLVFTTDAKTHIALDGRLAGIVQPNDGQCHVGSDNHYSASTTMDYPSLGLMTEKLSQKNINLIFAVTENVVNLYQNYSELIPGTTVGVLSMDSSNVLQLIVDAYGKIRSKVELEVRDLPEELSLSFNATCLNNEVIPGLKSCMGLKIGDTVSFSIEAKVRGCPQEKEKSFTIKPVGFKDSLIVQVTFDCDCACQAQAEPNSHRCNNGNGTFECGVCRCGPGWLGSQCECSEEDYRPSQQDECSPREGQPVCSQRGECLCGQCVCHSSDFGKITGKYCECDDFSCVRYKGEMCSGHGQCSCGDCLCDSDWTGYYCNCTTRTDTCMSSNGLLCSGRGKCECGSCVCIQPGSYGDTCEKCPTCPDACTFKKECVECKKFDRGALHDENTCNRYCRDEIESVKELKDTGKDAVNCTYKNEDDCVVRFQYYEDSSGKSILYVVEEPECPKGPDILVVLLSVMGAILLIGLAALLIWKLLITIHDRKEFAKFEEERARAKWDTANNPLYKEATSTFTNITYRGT
Target sequence in this assay (P06756 31-889 limits assumed): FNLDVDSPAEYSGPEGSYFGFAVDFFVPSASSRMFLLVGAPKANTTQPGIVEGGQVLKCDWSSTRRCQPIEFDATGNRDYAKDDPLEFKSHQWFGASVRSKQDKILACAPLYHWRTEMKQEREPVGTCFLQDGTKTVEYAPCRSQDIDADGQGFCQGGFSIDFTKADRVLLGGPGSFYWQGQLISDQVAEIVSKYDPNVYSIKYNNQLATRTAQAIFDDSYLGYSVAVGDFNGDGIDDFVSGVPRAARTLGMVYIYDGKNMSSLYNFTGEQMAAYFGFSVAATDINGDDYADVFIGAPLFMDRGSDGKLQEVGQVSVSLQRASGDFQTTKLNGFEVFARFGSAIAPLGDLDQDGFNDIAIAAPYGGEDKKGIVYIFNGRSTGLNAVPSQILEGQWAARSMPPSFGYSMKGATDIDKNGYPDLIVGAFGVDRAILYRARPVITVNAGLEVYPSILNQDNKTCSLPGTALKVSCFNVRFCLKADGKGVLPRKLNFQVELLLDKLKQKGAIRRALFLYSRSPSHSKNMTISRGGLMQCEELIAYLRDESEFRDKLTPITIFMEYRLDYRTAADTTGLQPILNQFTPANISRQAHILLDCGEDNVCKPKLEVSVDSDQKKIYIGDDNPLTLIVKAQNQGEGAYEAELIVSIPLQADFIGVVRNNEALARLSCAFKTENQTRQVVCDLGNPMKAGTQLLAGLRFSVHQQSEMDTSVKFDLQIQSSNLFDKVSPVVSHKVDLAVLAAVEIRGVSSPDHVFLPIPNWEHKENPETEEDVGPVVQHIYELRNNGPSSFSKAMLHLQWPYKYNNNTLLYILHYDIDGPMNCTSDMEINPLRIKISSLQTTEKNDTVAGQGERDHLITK
Target sequence in this assay (P06756 891-1048 limits assumed): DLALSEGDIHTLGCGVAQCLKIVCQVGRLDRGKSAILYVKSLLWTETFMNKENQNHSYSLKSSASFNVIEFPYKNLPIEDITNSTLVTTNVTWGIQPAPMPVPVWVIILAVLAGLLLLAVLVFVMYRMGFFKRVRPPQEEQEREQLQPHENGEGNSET

Drug uptake [2] [%] | Activity [3] | Drug uptake [8] | IC50 [10] [nM] | SMILES | TGI [1] | inhibition in vivo at 3 mg/kg [1] [%] | inhibition (INH) [4] | TGI [5] | inhibition (INH) [6] | Activity [7] | inhibition (INH) [9] [%]
90 to 100 | – | – | – | N=C(N)NCc1ccccc1 | inactive | – | – | – | – | – | –
– | Active | Not Active | – | N=C(N)NCc1ccc(OCCOCCOCCOCCOCCOCCOCCn2cc(COc3c(I)cc(Oc4c(I)cc(CC(=O)O)cc4I)cc3I)nn2)cc1 | – | 80 to 100 | 80 - 100% | 80 - 100% | 50 - 60% | 80 - 100% | 30
– | – | Active | 62.4 | O=C(O)Cc1cc(I)c(Oc2cc(I)c(O)c(I)c2)c(I)c1 [TETRAC] | – | 40 to 50 | – | – | – | – | –

From ChEMBL document CHEMBL4613328, “Dual Targeting of Norepinephrine Transporter (NET) Function and Thyrointegrin αvβ3 Receptors in the Treatment of Neuroblastoma” (J Med Chem, 2020)
